Measured values reported in patent publication US7528253B2, “Compounds having β2 adrenergic receptor agonist and muscarinic receptor antagonist activity” (Theravance, Inc., priority 2004, dated 2009).

Columns and labels:
[1] = target: T1, human β2 adrenergic receptor (Homo sapiens, UniProt P07550); assay: Radioligand binding assay for human β2 adrenergic receptor (Assay Test Procedure A); conditions: displacement of [3H]-dihydroalprenolol, CHO membranes
T1 construct: expressed in transfected cells; membranes prepared
T1 sequence (P07550 whole entry): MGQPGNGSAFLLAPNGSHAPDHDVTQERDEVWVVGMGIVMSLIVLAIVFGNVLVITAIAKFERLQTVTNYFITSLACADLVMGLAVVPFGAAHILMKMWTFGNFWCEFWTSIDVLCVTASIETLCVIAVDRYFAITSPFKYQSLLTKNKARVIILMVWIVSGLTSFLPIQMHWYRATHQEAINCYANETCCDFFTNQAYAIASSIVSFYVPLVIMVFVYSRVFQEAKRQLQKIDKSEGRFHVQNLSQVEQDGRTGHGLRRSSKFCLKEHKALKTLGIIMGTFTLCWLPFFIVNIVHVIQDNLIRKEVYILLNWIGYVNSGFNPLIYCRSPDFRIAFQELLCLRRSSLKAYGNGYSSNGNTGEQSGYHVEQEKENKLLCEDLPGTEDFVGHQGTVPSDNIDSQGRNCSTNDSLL
Procedure: Chinese hamster ovarian (CHO) cell lines stably expressing cloned human β1, β2 or β3 adrenergic receptors, respectively, were grown to near confluency in Hams F-12 media with 10% FBS in the presence of 500 μg/mL Geneticin. The cell monolayer was lifted with 2 mM EDTA in PBS. Cells were pelleted by centrifugation at 1,000 rpm, and cell pellets were either stored frozen at −80° C. or membranes were prepared immediately for use. For preparation of β1 and β2 receptor expressing membranes, cell pellets were re-suspended in lysis buffer (10 mM HEPES/HCl, 10 mM EDTA, pH 7.4 at 4° C.) and homogenized using a tight-fitting Dounce glass homogenizer (30 strokes) on ice. […] The protein concentration of the membrane suspension was determined by the methods described in Lowry et al., 1951, Journal of Biological Chemistry, 193, 265; and Bradford, Analytical Biochemistry, 1976, 72, 248-54. […]
Binding assays were performed in 96-well microtiter plates in a total assay volume of 100 μL with 10-15 μg of membrane protein containing the human β1, β2 or β3 adrenergic receptors in assay buffer (75 mM Tris/HCl pH 7.4 at 25° C., 12.5 mM MgCl2, 1 mM EDTA, 0.2% BSA). […] Non-specific binding was determined in the presence of 10 μM propranolol. […] Filter plates were washed three times with filtration buffer (75 mM Tris/HCl pH 7.4 at 4° C., 12.5 mM MgCl2, 1 mM EDTA) to remove unbound radioactivity. […]

[2] = target: T2, M3 muscarinic receptor (hM3) (Homo sapiens, UniProt P20309); assay: Radioligand binding assay for muscarinic receptors (Assay Test Procedure B); conditions: displacement of [3H]-NMS, CHO cell membranes
T2 construct: expressed in transfected cells; membranes prepared
T2 sequence (P20309 whole entry): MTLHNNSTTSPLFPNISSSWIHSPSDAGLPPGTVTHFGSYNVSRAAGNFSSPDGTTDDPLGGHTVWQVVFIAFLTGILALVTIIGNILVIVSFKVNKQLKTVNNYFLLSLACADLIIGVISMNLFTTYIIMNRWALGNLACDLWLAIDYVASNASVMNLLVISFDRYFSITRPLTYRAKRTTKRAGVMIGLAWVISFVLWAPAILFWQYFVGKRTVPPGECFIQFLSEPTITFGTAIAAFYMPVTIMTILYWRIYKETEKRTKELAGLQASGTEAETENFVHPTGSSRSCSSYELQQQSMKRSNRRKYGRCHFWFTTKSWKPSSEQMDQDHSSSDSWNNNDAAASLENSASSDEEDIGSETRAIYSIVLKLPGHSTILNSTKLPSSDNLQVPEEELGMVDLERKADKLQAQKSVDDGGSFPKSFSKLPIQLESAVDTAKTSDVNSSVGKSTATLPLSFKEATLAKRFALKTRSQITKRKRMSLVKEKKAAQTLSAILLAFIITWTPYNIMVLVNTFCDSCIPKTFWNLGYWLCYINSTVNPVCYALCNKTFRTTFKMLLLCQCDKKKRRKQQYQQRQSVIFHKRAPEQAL
Procedure: CHO cell lines stably expressing cloned human hM1, hM2, hM3 and hM4 muscarinic receptor subtypes, respectively, were grown to near confluency in HAM's F-12 media supplemented with 10% FBS and 250 μg/mL Geneticin. The cells were grown in a 5% CO2, 37° C. incubator and lifted with 2 mM EDTA in dPBS. Cells were collected by 5 minute centrifugation at 650× g, and cell pellets were either stored frozen at −80° C. or membranes were prepared immediately for use. For membrane preparation, cell pellets were resuspended in lysis buffer and homogenized with a Polytron PT-2100 tissue disrupter (Kinematica AG; 20 seconds×2 bursts). Crude membranes were centrifuged at 40,000× g for 15 minutes at 4° C. […] The protein concentration of the membrane suspension was determined by the method described in Lowry et al., 1951, Journal of Biochemistry, 193, 265. […]
Radioligand binding assays for cloned human muscarinic receptors were performed in 96-well microtiter plates in a total assay volume of 100 μL. […] Filter plates were rinsed three times with wash buffer (10 mM HEPES) to remove unbound radioactivity. […] The plates were then counted in a PerkinElmer Topcount liquid scintillation counter (PerkinElmer Inc., Wellesley, Mass.). Binding data were analyzed by nonlinear regression analysis with the GraphPad Prism Software package (GraphPad Software, Inc., San Diego, Calif.) using the one-site competition model. […]

CN(CCCCCCCCCNC[C@H](O)c1ccc(O)c2[nH]c(=O)ccc12)CCC(C)(C)OC(=O)Nc1ccccc1-c1ccccc1 [Example 1, Biphenyl-2-ylcarbamic Acid 3-({9-[(R)-2-Hydroxy-2-(8-hydroxy-2-oxo-1,2-dihydro-quinolin-5-yl)ethylamino]nonyl}methylamino)-1,1-dimethylpropyl Ester]
Ki [1]: < 300 nM
Ki [2]: < 300 nM
